# Reference: patent US20170136140A1, “Antimicrobial Compositions Utilizing Silver and Oxygen, Process for Making, and Method of Using the Same” (Avent, Inc., priority 2014, published 2017)
# Read-outs that look alike come from different tables or passages of the source.
# What was measured:
# human fibroblasts = details: cited from earlier work
# [1] = system: Methicillin-resistant Staphylococcus aureus—MRSA (Clinical isolate); experiment: Antimicrobial challenge test (time-kill) in 95% TSB, concentrated media and silver; assay type: cell-based; details: throughout the duration of the testing (3 and 6 hours), 100% oxygen headspace, no silver
# Procedure: In the first sample, 10 ml of 95% tryptic soy broth (TSB) was inoculated with approximately 10^5 CFU of Methicillin-resistant Staphylococcus aureus—MRSA (Clinical isolate). […] Each test sample was then incubated at 37° C.; the level of surviving organisms was tested after 3 hours and 6 hours for each.
# The challenge organism (MRSA Clinical isolate) was prepared by culturing in Soybean-Casein digest broth (TSB) at 35° C. for 18 to 24 hrs to an approximate concentration of 1.8×10^9 CFU per ml. • 2. For the challenge tests: 0.01 ml of the stock culture was added into a 50 ml screw top test tube and then diluted to 10 ml with 95% TSB broth to a final concentration of 1.8×10^6 CFU/ml. • 3. […] Silver Challenge test: To a test tube prepared as described from step 2; 100 μl of 30% wt/wt AgNO3 was added and vortexed to mix for a final concentration of 0.3% AgNO3. • b. Silver+O2 challenge test: To a test tube prepared as described from step 2; 100 μl of 30% wt/wt AgNO3 solution was added and vortexed to mix for a final concentration of 0.3% AgNO3. […] The samples were then incubated at 37° C. for both 3 and 6 hours. • d. At the 3 and 6 hour time point the samples were plated at different dilutions (10^−1, 10^−3, and 10^−5) to enumerate the surviving colonies. • i. The 3 hour samples was re-purged with 02 gas and returned to the incubating oven for an additional 3 hours. • ii. […]
# [2] = system: Pseudomonas aeruginosa (ATCC 9027); assay type: cell-based; details: 37° C., 0.03 ppm silver (from silver nitrate), 5% TSB, based on time zero plate count
# Procedure: Each test sample was then incubated at 37° C.; the level of surviving organisms was tested after 3 hours and 6 hours for each.
# The challenge organism (Pseudomonas aeruginosa ATCC 9027) was prepared by culturing in Soybean-Casein digest broth (TSB) at 35° C. for 18 to 24 hrs to an approximate concentration of 1.8×10^8 CFU per ml. • 2. For the challenge tests: 0.01 ml of the stock culture was added into a 50 ml screw top test tube and then diluted to 10 ml with 5% TSB broth to a final concentration of 1.8×10^5 CFU/ml. • 3. […] Silver Challenge test: To a test tube prepared as described from step 2; 100 μl of 3 ppm AgNO3 was added and vortexed to mix for a final concentration of 0.03 ppm AgNO3. • b. Silver+O2 challenge test: To a test tube prepared as described from step 2; 100 μl of 3 ppm Ag+ (from AgNO3) solution was added and vortexed to mix for a final concentration of 0.03 ppm AgNO3. […] The samples were then incubated at 37° C. for both 3 and 6 hours. • d. At the 3 and 6 hour time point the samples were plated at different dilutions (10^−1, 10^−3, and 10^−5) to enumerate the surviving colonies. • i. The 3 hour samples were re-purged with 02 gas and returned to the incubating oven for an additional 3 hours. • ii. The media used for plating was Trypticase soy agar (TSA). • e. The plates were incubated for 2 to 3 days before counting. • f. […]
molecule,measurement,setting,value
[Ag+] [Ionic silver],concentration cytotoxic to human fibroblasts,human fibroblasts,1 parts per million
"O=O [Sample 4, oxygen gas]",change in the amount of colony forming units,[1],increase
silver nitrate [Sample 1],log reduction in the number of CFU,[2]; after 3 hours,2 log
same,log reduction in the number of CFU,[2]; after 6 hours,3 log
